Target: T1, BRM (Homo sapiens, UniProt P51531)
T1 construct: Western Blot Screen of BRM Degradation in SW1573 Cells; endogenous in cells; host or cells: SW1573 cells
Assay: BRM degradation (Dmax and DC50) in SW1573 cells, Western blot screen / In-Cell Western screen
Format: cell-based
Conditions: overnight (18-20 hours) treatment; for Dmax: read-out: Dmax (%)** (% degraded)
Procedure, shortened: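 Dmax and DC50 were derived from BRM levels normalised to an alpha-tubulin control, measured by chemiluminescent Western blotting of lysates or by PFA-fixed In-Cell Western on LI-COR Odyssey. SW1573 cells received compound overnight (18–20 h, 0.1% DMSO final).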

T1 sequence (P51531 whole entry): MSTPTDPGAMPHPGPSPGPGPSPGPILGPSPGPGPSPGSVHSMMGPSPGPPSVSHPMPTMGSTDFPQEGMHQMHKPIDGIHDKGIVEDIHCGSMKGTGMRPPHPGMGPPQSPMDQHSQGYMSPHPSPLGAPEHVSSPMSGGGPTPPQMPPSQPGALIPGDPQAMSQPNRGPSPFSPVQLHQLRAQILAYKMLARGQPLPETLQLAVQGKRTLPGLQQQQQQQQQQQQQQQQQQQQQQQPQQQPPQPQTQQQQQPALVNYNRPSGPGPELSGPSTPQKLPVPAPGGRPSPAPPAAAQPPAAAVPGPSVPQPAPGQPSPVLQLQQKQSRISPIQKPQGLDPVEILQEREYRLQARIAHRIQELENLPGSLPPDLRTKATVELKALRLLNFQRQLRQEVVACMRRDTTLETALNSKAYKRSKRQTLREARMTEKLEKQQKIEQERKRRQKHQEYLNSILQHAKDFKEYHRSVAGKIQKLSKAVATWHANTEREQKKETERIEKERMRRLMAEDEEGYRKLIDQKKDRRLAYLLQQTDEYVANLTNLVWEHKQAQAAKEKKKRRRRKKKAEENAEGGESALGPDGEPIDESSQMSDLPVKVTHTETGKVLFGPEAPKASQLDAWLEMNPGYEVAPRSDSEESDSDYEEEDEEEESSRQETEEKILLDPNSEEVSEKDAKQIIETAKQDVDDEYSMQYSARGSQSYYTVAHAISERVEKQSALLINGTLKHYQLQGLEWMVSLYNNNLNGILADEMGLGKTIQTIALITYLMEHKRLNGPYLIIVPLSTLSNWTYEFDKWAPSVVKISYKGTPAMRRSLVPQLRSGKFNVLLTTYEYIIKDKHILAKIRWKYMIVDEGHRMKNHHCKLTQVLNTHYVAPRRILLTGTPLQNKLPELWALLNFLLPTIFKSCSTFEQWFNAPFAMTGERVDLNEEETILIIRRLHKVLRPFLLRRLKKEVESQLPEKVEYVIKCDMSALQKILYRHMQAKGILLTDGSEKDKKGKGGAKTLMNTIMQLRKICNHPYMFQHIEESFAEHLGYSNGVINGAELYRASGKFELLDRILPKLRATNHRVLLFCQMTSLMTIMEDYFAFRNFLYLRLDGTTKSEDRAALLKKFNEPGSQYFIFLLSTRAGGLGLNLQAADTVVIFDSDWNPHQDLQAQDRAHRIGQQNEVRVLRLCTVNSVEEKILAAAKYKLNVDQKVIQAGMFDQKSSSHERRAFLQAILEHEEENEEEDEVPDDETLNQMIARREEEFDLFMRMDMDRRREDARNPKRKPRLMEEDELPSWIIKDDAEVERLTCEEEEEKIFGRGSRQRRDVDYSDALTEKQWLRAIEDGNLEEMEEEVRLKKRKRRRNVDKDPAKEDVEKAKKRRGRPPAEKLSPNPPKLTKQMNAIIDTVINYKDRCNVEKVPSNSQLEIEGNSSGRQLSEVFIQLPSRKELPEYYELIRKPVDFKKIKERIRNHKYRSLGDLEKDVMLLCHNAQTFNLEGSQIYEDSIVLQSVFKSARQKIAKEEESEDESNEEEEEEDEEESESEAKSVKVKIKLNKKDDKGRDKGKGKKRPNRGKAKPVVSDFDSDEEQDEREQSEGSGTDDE

Row | SMILES | DC50 | Dmax
1 | Cc1ncsc1-c1ccc([C@H](C)NC(=O)[C@@H]2C[C@@H](O)CN2C(=O)C(c2cc(N3CCC(OC(=O)N4CCC(O[C@H]5C[C@H](Oc6cc(N7CCN(c8cc(-c9ccccc9O)nnc8N)CC7)ccn6)C5)CC4)CC3)no2)C(C)C)cc1 (stereo partly drawn) [Compound 145, 1-(5-{1-[(2S,4R)-4-hydroxy-2-{[(1S)-1-[4-(4-methyl-1,3-thiazol-5-yl)phenyl]ethyl]carbamoyl}pyrrolidin-1-yl]-3-methyl-1-oxobutan-2-yl}-1,2-oxazol-3-yl)piperidin-4-yl 4-[(1r,3r)-3-[(4-{4-[3-amino-6-(2-hydroxyphenyl)pyridazin-4-yl]piperazin-1-yl}pyridin-2-yl)oxy]cyclobutoxy]piperidine-1-carboxylate] | 2.5 to 10 nM | > 75%
2 | CC(C)[C@@H](C(=O)N1C[C@H](O)C[C@H]1C(=O)N[C@@H](C)c1ccc(C#N)cc1)c1cc(N2CCC(CN3CC[C@H](Oc4cc(N5C6CCC5CN(c5cc(-c7ccccc7O)nnc5N)C6)ccn4)C(F)(F)C3)CC2)no1 [Compound 146, (2S,4R)-1-[(2R)-2-[3-(4-{[(4S)-4-[(4-{3-[3-amino-6-(2-hydroxyphenyl)pyridazin-4-yl]-3,8-diazabicyclo[3.2.1]octan-8-yl}pyridin-2-yl)oxy]-3,3-difluoropiperidin-1-yl]methyl}piperidin-1-yl)-1,2-oxazol-5-yl]-3-methylbutanoyl]-N-[(1S)-1-(4-cyanophenyl)ethyl]-4-hydroxypyrrolidine-2-carboxamide] | 10 to 30 nM | > 75%
3 | CC(C)[C@@H](C(=O)N1C[C@H](O)C[C@H]1C(=O)N[C@@H](C)c1ccc(C#N)cc1)c1cc(N2CCC(CN3CC[C@@H](Oc4cc(N5C6CCC5CN(c5cc(-c7ccccc7O)nnc5N)C6)ccn4)C(F)(F)C3)CC2)no1 [Compound 147, (2S,4R)-1-[(2R)-2-[3-(4-{[(4R)-4-[(4-{3-[3-amino-6-(2-hydroxyphenyl)pyridazin-4-yl]-3,8-diazabicyclo[3.2.1]octan-8-yl}pyridin-2-yl)oxy]-3,3-difluoropiperidin-1-yl]methyl}piperidin-1-yl)-1,2-oxazol-5-yl]-3-methylbutanoyl]-N-[(1S)-1-(4-cyanophenyl)ethyl]-4-hydroxypyrrolidine-2-carboxamide] | 2.5 to 10 nM | > 75%
4 | Cc1ncsc1-c1ccc([C@H](C)NC(=O)[C@@H]2C[C@@H](O)CN2C(=O)[C@@H](c2cc(OCCN3CCN(CCOc4cc(N5C6CCC5CN(c5cc(-c7cc(F)ccc7O)nnc5N)C6)ccn4)[C@H](C)C3)no2)C(C)C)cc1 [Compound 148, (2S,4R)-1-[(2R)-2-(3-{2-[(3R)-4-{2-[(4-{3-[3-amino-6-(5-fluoro-2-hydroxyphenyl)pyridazin-4-yl]-3,8-diazabicyclo[3.2.1]octan-8-yl}pyridin-2-yl)oxy]ethyl}-3-methylpiperazin-1-yl]ethoxy}-1,2-oxazol-5-yl)-3-methylbutanoyl]-4-hydroxy-N-[(1S)-1-[4-(4-methyl-1,3-thiazol-5-yl)phenyl]ethyl]pyrrolidine-2-carboxamide] | < 2.5 nM | > 75%
5 | Cc1ncsc1-c1ccc([C@H](C)NC(=O)[C@@H]2C[C@@H](O)CN2C(=O)[C@@H](c2cc(OCCN3CCN(CCOc4cc(N5C6CCC5CN(c5cc(-c7ncccc7O)nnc5N)C6)ccn4)[C@H](C)C3)no2)C(C)C)cc1 [Compound 149, (2S,4R)-1-[(2R)-2-(3-{2-[(3R)-4-{2-[(4-{3-[3-amino-6-(3-hydroxypyridin-2-yl)pyridazin-4-yl]-3,8-diazabicyclo[3.2.1]octan-8-yl}pyridin-2-yl)oxy]ethyl}-3-methylpiperazin-1-yl]ethoxy}-1,2-oxazol-5-yl)-3-methylbutanoyl]-4-hydroxy-N-[(1S)-1-[4-(4-methyl-1,3-thiazol-5-yl)phenyl]ethyl]pyrrolidine-2-carboxamide] | ≥ 30 nM | 
6 | CC(C)[C@H](C(=O)N1C[C@H](O)C[C@H]1C(=O)N[C@@H](C)c1ccc(C#N)cc1)c1cc(N2CCC(OCCN3CCC(Oc4cc(N5C6CCC5CN(c5cc(-c7ccccc7O)nnc5N)C6)ccn4)CC3)CC2)no1 [Compound 150, (2S,4R)-1-[(2S)-2-{3-[4-(2-{4-[(4-{3-[3-amino-6-(2-hydroxyphenyl)pyridazin-4-yl]-3,8-diazabicyclo[3.2.1]octan-8-yl}pyridin-2-yl)oxy]piperidin-1-yl}ethoxy)piperidin-1-yl]-1,2-oxazol-5-yl}-3-methylbutanoyl]-N-[(1S)-1-(4-cyanophenyl)ethyl]-4-hydroxypyrrolidine-2-carboxamide] | ≥ 30 nM | 
7 | CC(C)[C@@H](C(=O)N1C[C@H](O)C[C@H]1C(=O)N[C@@H](C)c1ccc(C#N)cc1)c1cc(N2CCC(OCCN3CCC(Oc4cc(N5C6CCC5CN(c5cc(-c7ccccc7O)nnc5N)C6)ccn4)CC3)CC2)no1 [Compound 151, (2S,4R)-1-[(2R)-2-{3-[4-(2-{4-[(4-{3-[3-amino-6-(2-hydroxyphenyl)pyridazin-4-yl]-3,8-diazabicyclo[3.2.1]octan-8-yl}pyridin-2-yl)oxy]piperidin-1-yl}ethoxy)piperidin-1-yl]-1,2-oxazol-5-yl}-3-methylbutanoyl]-N-[(1S)-1-(4-cyanophenyl)ethyl]-4-hydroxypyrrolidine-2-carboxamide] | 2.5 to 10 nM | > 75%
8 | CC(C)[C@H](C(=O)N1C[C@H](O)C[C@H]1C(=O)N[C@@H](C)c1ccc(C#N)cc1)c1cc(N2CCC(OCCN3CCC(O[C@H]4C[C@H](Oc5cc(N6C7CCC6CN(c6cc(-c8ccccc8O)nnc6N)C7)ccn5)C4)CC3)CC2)no1 [Compound 152, (2S,4R)-N-[(1S)-1-(4-cyanophenyl)ethyl]-4-hydroxy-1-[(2S)-3-methyl-2-{3-[4-(2-{4-[(1r,3r)-3-[(4-{3-[3-amino-6-(2-hydroxyphenyl)pyridazin-4-yl]-3,8-diazabicyclo[3.2.1]octan-8-yl}pyridin-2-yl)oxy]cyclobutoxy]piperidin-1-yl}ethoxy)piperidin-1-yl]-1,2-oxazol-5-yl}butanoyl]pyrrolidine-2-carboxamide] | ≥ 30 nM | 
9 | CC(C)[C@@H](C(=O)N1C[C@H](O)C[C@H]1C(=O)N[C@@H](C)c1ccc(C#N)cc1)c1cc(N2CCC(OCCN3CCC(O[C@H]4C[C@H](Oc5cc(N6C7CCC6CN(c6cc(-c8ccccc8O)nnc6N)C7)ccn5)C4)CC3)CC2)no1 [Compound 153, (2S,4R)-N-[(1S)-1-(4-cyanophenyl)ethyl]-4-hydroxy-1-[(2R)-3-methyl-2-{3-[4-(2-{4-[(1r,3r)-3-[(4-{3-[3-amino-6-(2-hydroxyphenyl)pyridazin-4-yl]-3,8-diazabicyclo[3.2.1]octan-8-yl}pyridin-2-yl)oxy]cyclobutoxy]piperidin-1-yl}ethoxy)piperidin-1-yl]-1,2-oxazol-5-yl}butanoyl]pyrrolidine-2-carboxamide] | < 2.5 nM | > 75%
10 | CC(C)[C@H](C(=O)N1C[C@H](O)C[C@H]1C(=O)N[C@@H](C)c1ccc(C#N)cc1)c1cc(N2CCC(OCCN3CCC(Oc4cc(N5CCN(c6cc(-c7ccccc7O)nnc6N)CC5)ccn4)CC3)CC2)no1 [Compound 154, (2S,4R)-1-[(2S)-2-{3-[4-(2-{4-[(4-{4-[3-amino-6-(2-hydroxyphenyl)pyridazin-4-yl]piperazin-1-yl}pyridin-2-yl)oxy]piperidin-1-yl}ethoxy)piperidin-1-yl]-1,2-oxazol-5-yl}-3-methylbutanoyl]-N-[(1S)-1-(4-cyanophenyl)ethyl]-4-hydroxypyrrolidine-2-carboxamide] | ≥ 30 nM | 
11 | CC(C)[C@@H](C(=O)N1C[C@H](O)C[C@H]1C(=O)N[C@@H](C)c1ccc(C#N)cc1)c1cc(N2CCC(OCCN3CCC(Oc4cc(N5CCN(c6cc(-c7ccccc7O)nnc6N)CC5)ccn4)CC3)CC2)no1 [Compound 155, (2S,4R)-1-[(2R)-2-{3-[4-(2-{4-[(4-{4-[3-amino-6-(2-hydroxyphenyl)pyridazin-4-yl]piperazin-1-yl}pyridin-2-yl)oxy]piperidin-1-yl}ethoxy)piperidin-1-yl]-1,2-oxazol-5-yl}-3-methylbutanoyl]-N-[(1S)-1-(4-cyanophenyl)ethyl]-4-hydroxypyrrolidine-2-carboxamide] | 10 to 30 nM | > 75%
12 | CC(C)[C@@H](C(=O)N1C[C@H](O)C[C@H]1C(=O)N[C@@H](C)c1ccc(C#N)cc1)c1cc(N2CCC(CN3CC[C@H](Oc4cc(N5C6CCC5CN(c5cc(-c7ccccc7O)nnc5N)C6)ccn4)[C@H](F)C3)CC2)no1 [Compound 156, (2S,4R)-1-[(2R)-2-[3-(4-{[(3R,4S)-4-[(4-{3-[3-amino-6-(2-hydroxyphenyl)pyridazin-4-yl]-3,8-diazabicyclo[3.2.1]octan-8-yl}pyridin-2-yl)oxy]-3-fluoropiperidin-1-yl]methyl}piperidin-1-yl)-1,2-oxazol-5-yl]-3-methylbutanoyl]-N-[(1S)-1-(4-cyanophenyl)ethyl]-4-hydroxypyrrolidine-2-carboxamide] | < 2.5 nM | > 75%
13 | CC(C)[C@@H](C(=O)N1C[C@H](O)C[C@H]1C(=O)N[C@@H](C)c1ccc(C#N)cc1)c1cc(N2CCC(CN3CC[C@@H](Oc4cc(N5C6CCC5CN(c5cc(-c7ccccc7O)nnc5N)C6)ccn4)[C@@H](F)C3)CC2)no1 [Compound 157, (2S,4R)-1-[(2R)-2-[3-(4-{[(3S,4R)-4-[(4-{3-[3-amino-6-(2-hydroxyphenyl)pyridazin-4-yl]-3,8-diazabicyclo[3.2.1]octan-8-yl}pyridin-2-yl)oxy]-3-fluoropiperidin-1-yl]methyl}piperidin-1-yl)-1,2-oxazol-5-yl]-3-methylbutanoyl]-N-[(1S)-1-(4-cyanophenyl)ethyl]-4-hydroxypyrrolidine-2-carboxamide] | < 2.5 nM | > 75%
